Measured values as given in US8247532B2, “Deuterated hepatitis C protease inhibitors” (Vertex Pharmaceuticals Incorporated, priority 2006, dated 2012).

Key:
[1] = Epimerization rate assay in buffer; assay type: physicochemical; conditions: 1 uM and 10 uM
Procedure: (§1) The epimerization rate was measured according to the following assay. Specifically, 100 μL medium (buffer, rat plasma, dog plasma, or human plasma) was added into a 96-well deep plate. To the plasma was then added 10 μL acetonitrile solution containing a test compound (1S,3aR,6aS)-2-((S)-2-((S)-2-cyclohexyl-2-(pyrazine-2-carboxamido)acetamido)-3,3-dimethylbutanoyl)-N—((S)-1-(cyclopropylamino)-1,2-dioxo-3-deutero-hexan-3-yl)octahydrocyclopenta[c]pyrrole-1-carboxamide (at 1 uM or 10 uM) and 1200 μL ethyl acetate into the 96 deep-well plate (2 mL) by using a TomTec liquid handling workstation (Hamden, Conn., USA). The plate was then covered tightly and shaken with a vortex for 20 minutes before it was centrifuged at 3000 rpm for 10 minutes. After centrifuge, 900 μL of the supernatant was transferred to a new V-shape 96 deep-well plate using TomTec, and then dried under nitrogen gas (flow rate of 60 L/min) at 25° C. for about 30 minutes. The residue was reconstituted with 100 μL ethyl acetate, and the solution was again transferred into the glass inserts in the 96-well plate. 20 uL of the reconstituted solution was injected into LC-MS/MS to determine the amount of the epimers. The LC-MS/MS spectrometer used a ChiralPak AD Column (4.6×150 mm, 10 μm), a mixture of isopropanol and n-heptane (10:90, 50:50, or 90:10) as the mobile phase, and isopropanol as the washing solvent. […]

[2] = assay type: in vitro ADME; conditions: human
Procedure: as §1

## [2H][C@@](CCC)(NC(=O)[C@@H]1[C@H]2CCC[C@H]2CN1C(=O)[C@@H](NC(=O)[C@@H](NC(=O)c1cnccn1)C1CCCCC1)C(C)(C)C)C(=O)C(=O)NC1CC1 [deuterated compound, (1S,3aR,6aS)-2-((S)-2-((S)-2-cyclohexyl-2-(pyrazine-2-carboxamido)acetamido)-3,3-dimethylbutanoyl)-N—((S)-1-(cyclopropylamino)-1,2-dioxo-3-deutero-hexan-3-yl)octahydrocyclopenta[c]pyrrole-1-carboxamide]
[1]
  epimerization rate compared with non-deuterated form: slower epimerization rate
[2]
  time course (shape) of epimerization: linear rate for 180 minutes
